This note sets out measurements from patent US20070259849A1, “Azine-Carboxamides as Anti-Cancer Agents” (ASTRAZENECA AB, priority 2004, published 2007).

pIC50: −log10 of the molar value.

T1 sequence (P15056 whole entry): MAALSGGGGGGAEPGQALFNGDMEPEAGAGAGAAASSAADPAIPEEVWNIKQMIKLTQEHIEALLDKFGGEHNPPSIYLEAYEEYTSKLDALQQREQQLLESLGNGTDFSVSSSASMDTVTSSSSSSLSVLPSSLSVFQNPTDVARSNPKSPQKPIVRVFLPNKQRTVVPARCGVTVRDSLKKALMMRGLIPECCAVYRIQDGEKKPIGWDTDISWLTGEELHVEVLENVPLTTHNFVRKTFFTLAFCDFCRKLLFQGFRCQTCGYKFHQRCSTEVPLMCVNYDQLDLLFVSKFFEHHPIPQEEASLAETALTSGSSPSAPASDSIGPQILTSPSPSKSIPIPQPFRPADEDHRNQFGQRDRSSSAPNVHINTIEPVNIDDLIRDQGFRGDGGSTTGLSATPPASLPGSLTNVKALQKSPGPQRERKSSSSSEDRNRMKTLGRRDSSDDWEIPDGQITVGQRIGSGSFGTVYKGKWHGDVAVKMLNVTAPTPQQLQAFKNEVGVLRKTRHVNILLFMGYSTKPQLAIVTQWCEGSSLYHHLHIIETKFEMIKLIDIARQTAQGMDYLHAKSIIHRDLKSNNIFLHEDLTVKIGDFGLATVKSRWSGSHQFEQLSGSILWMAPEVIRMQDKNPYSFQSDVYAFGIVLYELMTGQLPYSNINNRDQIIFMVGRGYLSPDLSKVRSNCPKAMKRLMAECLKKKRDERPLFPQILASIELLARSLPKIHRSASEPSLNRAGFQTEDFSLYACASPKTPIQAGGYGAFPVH

The test addresses T1, human recombinant, purified wild type His-B-Raf protein kinase (Homo sapiens, UniProt P15056).
T1 construct: His
As to the kind of experiment: B-Raf In Vitro ELISA Assay. It counts as biochemical. Conditions: phosphorylation of MEK1 (0.15 μM) by 2.5 nM B-Raf, 10 μM ATP, 1 hour preincubation at 25° C. The procedure:
B-Raf In Vitro ELISA Assay
Activity of human recombinant, purified wild type His-B-Raf protein kinase was determined in vitro using an enzyme-linked immunosorbent assay (ELISA) assay format, which measures phosphorylation of the B-Raf substrate, human recombinant, purified His-derived (detagged) MEK1. The reaction utilized 2.5 nM B-Raf, 0.15 μM MEK1 and 10 μM adenosine triphosphate (ATP) in 40 mM N-(2-hydroxyethyl)piperazine-N′-(2-ethanesulfonic acid hemisodium salt (HEPES), 5 mM 1,4-dithio-DL-threitol (DTT), 10 mM MgCl2, 1 mM ethylenediaminetetraacetic acid (EDTA) and 0.2 M NaCl (1×HEPES buffer), with or without compound at various concentrations, in a total reaction volume of 25 μl in 384 well plates. B-Raf and compound were preincubated in 1×HEPES buffer for 1 hour at 25° C. Reactions were initiated with addition of MEK1 and ATP in 1×HEPES buffer and incubated at 25° C. for 50 minutes and reactions stopped by addition of 10 μl 175 mM EDTA (final concentration 50 mM) in 1× HEPES buffer. 5 μl of the assay mix was then diluted 1:20 into 50 mM EDTA in 1×HEPES buffer, transferred to 384 well black high protein binding plates and incubated overnight at 4° C. Plates were washed in tris buffered saline containing 0.1% Tween20 (TBST), blocked with 50 μl Superblock (Pierce) for 1 hour at 25° C., washed in TBST, incubated with 50 μl rabbit polyclonal anti-phospho-MEK antibody (Cell Signaling) diluted 1:1000 in TBS for 2 hours at 25° C., washed with TBST, incubated with 50 μl goat anti-rabbit horseradish peroxidase-linked antibody (Cell Signaling) diluted 1:2000 in TBS for 1 hour at 25° C. and washed with TBST. 50 μl of fluorogenic peroxidase substrate (Quantablu—Pierce) was added and following incubation for 45-60 minutes, 50 μl QuantabluSTOP (Pierce) was added. Blue fluorescent product was detected at excitation 325 and emission 420 using a TECAN Ultra plate reader. Data was graphed and IC50s calculated using Excel Fit (Microsoft).
As to `Cc1cc(C(=O)Nc2cc(NC(=O)c3cccc(C(F)(F)F)c3)ccc2C)nc(N2CCN(C)CC2)n1` [Example 49, N^1-(3-Trifluoromethylbenzoyl)-N^3-[2-(4-methylpiperazin-1-yl)-4-methylpyrimidin-6-ylcarbonyl]-4-methylbenzene-1,3-diamine], the negative-log IC50 (pIC50) was 6.10.
To `Cc1cc(C(=O)Nc2cc(NC(=O)c3cccc(C(C)(C)C#N)c3)ccc2C)nc(N2CCCCC2)n1` [Example 1, N^1-[3-(1-Cyano-1-methylethyl)benzoyl]-N^3-[2-(piperidin-1-yl)-4-methylpyrimidin-6-ylcarbonyl]-4-methylbenzene-1,3-diamine] belongs 5.24.
Regarding `Cc1cc(C(=O)Nc2cc(NC(=O)c3cccc(C(C)(C)C#N)c3)ccc2C)nc(N2CCOCC2)n1` [Example 7, N^1-[3-(1-Cyano-1-methylethyl)benzoyl]-N^3-[2-(morpholino)-4-methylpyrimidin-6-ylcarbonyl]-4-methylbenzene-1,3-diamine], the pIC50 is 6.22.

As a reminder, the pIC50 is the IC50 on a negative log10 scale, so that one unit is a factor of ten.
